# Measured values taken from ChEMBL document CHEMBL3885881, “DrugMatrix”.
# Species on record: Rattus norvegicus
# Assay: DrugMatrix - Regimen: Daily Repeat
# Format: toxicity, organism-based, Sprague-Dawley
# Set-up: regimen Daily Repeat, gender Male, age 6-8 weeks
# Conditions: in vivo, po, 0 mg/kg, route oral GAVAGE, dose level Control, vehicle .5 % CMC; for ABSOLUTE BASOPHIL / ABSOLUTE EOSINOPHIL / ABSOLUTE LYMPHOCYTE / ABSOLUTE MONOCYTE / ABSOLUTE SEGMENTED NEUTROPHIL / BASOPHIL / EOSINOPHIL / ERYTHROCYTE COUNT / HEMATOCRIT / HEMOGLOBIN / LEUKOCYTE COUNT / LYMPHOCYTE / MEAN CORPUSCULAR HEMOGLOBIN / MEAN CORPUSCULAR HEMOGLOBIN CONCENTRATION / MEAN CORPUSCULAR VOLUME / MONOCYTE / NEUTROPHIL / NUCLEATED RED BLOOD CELLS / PLATELET COUNT: tissue Blood; for ALANINE AMINOTRANSFERASE / ALBUMIN / ALKALINE PHOSPHATASE / ASPARTATE AMINOTRANSFERASE / BLOOD UREA NITROGEN / CARBON DIOXIDE / CHLORIDE / CHOLESTEROL / CREATININE / GLUCOSE / LACTATE DEHYDROGENASE / LIPASE / PHOSPHORUS / POTASSIUM / SODIUM / TOTAL BILIRUBIN / TOTAL PROTEIN / URIC ACID: tissue Plasma
smiles,measurement,setting,value
ClC(Br)Br [DIBROMOCHLOROMETHANE],ABSOLUTE BASOPHIL,"120 h, time 5 day",0 CELLS/uL
same,ABSOLUTE EOSINOPHIL,"120 h, time 5 day",18.5 CELLS/uL
same,ABSOLUTE LYMPHOCYTE,"120 h, time 5 day",8146.83 CELLS/uL
same,ABSOLUTE MONOCYTE,"120 h, time 5 day",204.83 CELLS/uL
same,ABSOLUTE SEGMENTED NEUTROPHIL,"120 h, time 5 day",1329.83 CELLS/uL
same,BASOPHIL,"120 h, time 5 day",0%
same,EOSINOPHIL,"120 h, time 5 day",0.17%
same,ERYTHROCYTE COUNT,"120 h, time 5 day",5.37 x10E6/uL
same,HEMATOCRIT,"120 h, time 5 day",33.17%
same,HEMOGLOBIN,"120 h, time 5 day",12.07 G/DL
same,LEUKOCYTE COUNT,"120 h, time 5 day",9.7 x10E3/uL
same,LYMPHOCYTE,"120 h, time 5 day",85.33%
same,MEAN CORPUSCULAR HEMOGLOBIN,"120 h, time 5 day",22.52 pg
same,MEAN CORPUSCULAR HEMOGLOBIN CONCENTRATION,"120 h, time 5 day",36.42 G/DL
same,MEAN CORPUSCULAR VOLUME,"120 h, time 5 day",61.78 fL
same,MONOCYTE,"120 h, time 5 day",1.83%
same,NEUTROPHIL,"120 h, time 5 day",12.67%
same,NUCLEATED RED BLOOD CELLS,"120 h, time 5 day",0 /100WBC
same,PLATELET COUNT,"120 h, time 5 day",907.5 x10E3/uL
same,ALANINE AMINOTRANSFERASE,"120 h, time 5 day",58.5 u/L
same,ALBUMIN,"120 h, time 5 day",4.4 G/DL
same,ALKALINE PHOSPHATASE,"120 h, time 5 day",377.67 u/L
same,ASPARTATE AMINOTRANSFERASE,"120 h, time 5 day",140.33 u/L
same,BLOOD UREA NITROGEN,"120 h, time 5 day",15.33 mg/dL
same,CARBON DIOXIDE,"120 h, time 5 day",32.17 mmol/L
same,CHLORIDE,"120 h, time 5 day",100 MEQ/L
same,CHOLESTEROL,"120 h, time 5 day",71.83 mg/dL
same,CREATININE,"120 h, time 5 day",0.18 mg/dL
same,GLUCOSE,"120 h, time 5 day",185 mg/dL
same,LACTATE DEHYDROGENASE,"120 h, time 5 day",241.5 u/L
same,LIPASE,"120 h, time 5 day",9.5 u/L
same,PHOSPHORUS,"120 h, time 5 day",13.02 mg/dL
same,POTASSIUM,"120 h, time 5 day",6.45 MEQ/L
same,SODIUM,"120 h, time 5 day",143.45 MEQ/L
same,TOTAL BILIRUBIN,"120 h, time 5 day",0.22 mg/dL
same,TOTAL PROTEIN,"120 h, time 5 day",6.1 G/DL
same,URIC ACID,"120 h, time 5 day",1 mg/dL
same,ABSOLUTE BASOPHIL,"[…], time 14 day",0 CELLS/uL
same,ABSOLUTE EOSINOPHIL,"[…], time 14 day",117.17 CELLS/uL
same,ABSOLUTE LYMPHOCYTE,"[…], time 14 day",13562 CELLS/uL
same,ABSOLUTE MONOCYTE,"[…], time 14 day",534.83 CELLS/uL
same,ABSOLUTE SEGMENTED NEUTROPHIL,"[…], time 14 day",2486 CELLS/uL
same,BASOPHIL,"[…], time 14 day",0%
same,EOSINOPHIL,"[…], time 14 day",0.83%
same,ERYTHROCYTE COUNT,"[…], time 14 day",6.14 x10E6/uL
same,HEMATOCRIT,"[…], time 14 day",36.87%
same,HEMOGLOBIN,"[…], time 14 day",13.87 G/DL
same,LEUKOCYTE COUNT,"[…], time 14 day",16.7 x10E3/uL
same,LYMPHOCYTE,"[…], time 14 day",81%
same,MEAN CORPUSCULAR HEMOGLOBIN,"[…], time 14 day",22.63 pg
same,MEAN CORPUSCULAR HEMOGLOBIN CONCENTRATION,"[…], time 14 day",37.62 G/DL
same,MEAN CORPUSCULAR VOLUME,"[…], time 14 day",60.15 fL
same,MONOCYTE,"[…], time 14 day",3.17%
same,NEUTROPHIL,"[…], time 14 day",15%
same,NUCLEATED RED BLOOD CELLS,"[…], time 14 day",0 /100WBC
same,PLATELET COUNT,"[…], time 14 day",974.83 x10E3/uL
same,ALANINE AMINOTRANSFERASE,"[…], time 14 day",52.33 u/L
same,ALBUMIN,"[…], time 14 day",4.48 G/DL
same,ALKALINE PHOSPHATASE,"[…], time 14 day",346.17 u/L
same,ASPARTATE AMINOTRANSFERASE,"[…], time 14 day",81 u/L
same,BLOOD UREA NITROGEN,"[…], time 14 day",15.67 mg/dL
same,CARBON DIOXIDE,"[…], time 14 day",34.33 mmol/L
same,CHLORIDE,"[…], time 14 day",100.17 MEQ/L
same,CHOLESTEROL,"[…], time 14 day",70.83 mg/dL
same,CREATININE,"[…], time 14 day",0.22 mg/dL
same,GLUCOSE,"[…], time 14 day",141.17 mg/dL
same,LACTATE DEHYDROGENASE,"[…], time 14 day",121.33 u/L
same,LIPASE,"[…], time 14 day",8.33 u/L
same,PHOSPHORUS,"[…], time 14 day",9.97 mg/dL
same,POTASSIUM,"[…], time 14 day",6.4 MEQ/L
same,SODIUM,"[…], time 14 day",143.72 MEQ/L
same,TOTAL BILIRUBIN,"[…], time 14 day",0.22 mg/dL
same,TOTAL PROTEIN,"[…], time 14 day",6.45 G/DL
same,URIC ACID,"[…], time 14 day",1.25 mg/dL
